Assay results published in patent US20210395239A1 (Hoffmann-La Roche Inc., priority 2018, published 2021).

The compounds below were run against T1, human TLR7 (Homo sapiens, UniProt Q9NYK1) (assay: HEK293-Blue-hTLR-7 cells assay (SEAP reporter, R848 stimulation)). Conditions: HEK293-Blue-hTLR7 cells, R848, 20 hrs; read-out: HEK/hTLR7 IC50.
T1 construct: host or cells: HEK293 (HEK-Blue hTLR7)
T1 sequence (Q9NYK1 27-1049): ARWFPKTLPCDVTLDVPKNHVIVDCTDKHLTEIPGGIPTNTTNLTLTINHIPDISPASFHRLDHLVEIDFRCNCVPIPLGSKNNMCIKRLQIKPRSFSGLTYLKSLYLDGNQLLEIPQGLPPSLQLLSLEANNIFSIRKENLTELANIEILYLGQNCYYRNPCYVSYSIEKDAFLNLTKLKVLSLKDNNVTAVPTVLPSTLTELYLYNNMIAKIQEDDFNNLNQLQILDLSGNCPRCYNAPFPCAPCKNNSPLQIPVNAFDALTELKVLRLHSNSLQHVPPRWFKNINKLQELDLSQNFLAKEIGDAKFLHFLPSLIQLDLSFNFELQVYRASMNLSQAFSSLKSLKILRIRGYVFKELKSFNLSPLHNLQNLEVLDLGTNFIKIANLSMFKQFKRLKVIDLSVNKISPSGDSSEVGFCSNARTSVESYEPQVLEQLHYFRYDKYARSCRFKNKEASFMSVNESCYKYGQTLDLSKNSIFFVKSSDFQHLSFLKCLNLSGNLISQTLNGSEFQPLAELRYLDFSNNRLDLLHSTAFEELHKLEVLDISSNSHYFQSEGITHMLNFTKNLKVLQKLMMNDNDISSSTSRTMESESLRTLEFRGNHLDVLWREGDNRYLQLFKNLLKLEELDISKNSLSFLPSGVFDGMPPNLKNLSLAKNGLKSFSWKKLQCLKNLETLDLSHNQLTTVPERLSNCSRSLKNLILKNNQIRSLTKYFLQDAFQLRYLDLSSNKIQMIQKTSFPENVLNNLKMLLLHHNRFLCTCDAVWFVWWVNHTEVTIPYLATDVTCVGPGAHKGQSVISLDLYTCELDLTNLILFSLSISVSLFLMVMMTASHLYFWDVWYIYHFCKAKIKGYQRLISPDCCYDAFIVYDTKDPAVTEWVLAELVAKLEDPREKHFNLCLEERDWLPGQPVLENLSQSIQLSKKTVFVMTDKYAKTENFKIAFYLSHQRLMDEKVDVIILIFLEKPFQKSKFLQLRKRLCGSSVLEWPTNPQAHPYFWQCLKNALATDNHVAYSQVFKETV
Type: cell-based
Method in brief: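 HEK293-Blue-hTLR7 cells (NF-κB/AP-1-driven SEAP reporter) were stimulated with R848 alongside serially diluted compound at 1% final DMSO for 20 h at 37 °C. Supernatant SEAP was then developed with QUANTI-Blue for 2 h at 37 °C and absorbance read at 620–655 nm; antagonism is measured as reduced reporter signal.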

Row | IC50 | Structure (SMILES)
1 | 11 nM | CO[C@H]1CN(c2nc(C)cc(N3CCN(C[C@H]4CN(c5ccc(C#N)c6ncccc56)C[C@@H](C)O4)CC3)n2)CC1N (relative stereo) [Example 59, 5-[(2R,6S)-2-methyl-6-[[4-[6-methyl-2-[trans-3-amino-4-methoxy-pyrrolidin-1-yl]pyrimidin-4-yl]piperazin-1-yl]methyl]morpholin-4-yl]quinoline-8-carbonitrile]
2 | 51 nM | COC1CNC[C@H]1Nc1cccc(N2CCN(C[C@H]3CN(c4ccc(C#N)c5ncccc45)C[C@@H](C)O3)CC2)n1 (stereo in doubt) [Example 39, 5-[(2S,6R)-2-[[4-[6-[[(3R,4R)-4-methoxypyrrolidin-3-yl]amino]-2-pyridyl]piperazin-1-yl]methyl]-6-methyl-morpholin-4-yl]quinoline-8-carbonitrile]
3 | 15 nM | COC1CN(c2nccc(N3CCN(C[C@H]4CN(c5ccc(C#N)c6ncccc56)C[C@@H](C)O4)CC3)n2)C[C@H]1N (stereo in doubt) [Example 52, 5-[(2S,6R)-2-[[4-[2-[(3R,4R)-3-amino-4-methoxy-pyrrolidin-1-yl]pyrimidin-4-yl]piperazin-1-yl]methyl]-6-methyl-morpholin-4-yl]quinoline-8-carbonitrile]
4 | 8 nM | CO[C@H]1CN(c2nccc(N3CCN(C[C@H]4CN(c5ccc(C#N)c6ncccc56)C[C@@H](C)O4)CC3)n2)CC1N (stereo in doubt) [Example 53, 5-[(2S,6R)-2-[[4-[2-[(3S,4S)-3-amino-4-methoxy-pyrrolidin-1-yl]pyrimidin-4-yl]piperazin-1-yl]methyl]-6-methyl-morpholin-4-yl]quinoline-8-carbonitrile]
5 | 9 nM | Cc1cc(N2CCN(C[C@H]3CN(c4ccc(C#N)c5ncccc45)C[C@@H](C)O3)CC2)nc(N2CC(N)C(F)C2)n1 (stereo in doubt) [Example 54, 5-[(2S,6R)-2-[[4-[2-[(3S,4R)-3-amino-4-fluoro-pyrrolidin-1-yl]-6-methyl-pyrimidin-4-yl]piperazin-1-yl]methyl]-6-methyl-morpholin-4-yl]quinoline-8-carbonitrile]
6 | 41 nM | COC1CN(c2ccc(C3CN(C[C@H]4CN(c5cc(=O)n(C)c6ncccc56)C[C@@H](C)O4)C3)cc2)C[C@H]1N (stereo in doubt) [Example 172, 4-[(2S,6R)-2-[[3-[4-[(3R,4R)-3-amino-4-methoxy-pyrrolidin-1-yl]phenyl]azetidin-1-yl]methyl]-6-methyl-morpholin-4-yl]-1-methyl-1,8-naphthyridin-2-one]
7 | 47 nM | C[C@@H]1CN(c2cc(=O)n(C)c3ncccc23)C[C@H](CN2CC(c3ccc(N4CC(F)[C@H](N)C4)cc3)C2)O1 (stereo in doubt) [Example 174, 4-[(2S,6R)-2-[[3-[4-[(3R,4R)-3-amino-4-fluoro-pyrrolidin-1-yl]phenyl]azetidin-1-yl]methyl]-6-methyl-morpholin-4-yl]-1-methyl-1,8-naphthyridin-2-one]
8 | 28 nM | C[C@@H]1CN(c2ccc(C#N)n3ncc(F)c23)C[C@H](CN2CCN(c3ccc(C4CNCCO4)cc3F)CC2)O1 (stereo in doubt) [Example 183, 3-fluoro-4-[(2S,6R)-2-[[4-[2-fluoro-4-[(2S)-morpholin-2-yl]phenyl]piperazin-1-yl]methyl]-6-methyl-morpholin-4-yl]pyrazolo[1,5-a]pyridine-7-carbonitrile]
9 | 34 nM | C[C@@H]1CN(c2ccc(C#N)c3ncccc23)C[C@H](CN2CCN(c3cncc(N4CCNCC4)c3)CC2)O1 [Example 7, 5-[(2R,6S)-2-methyl-6-[[4-(5-piperazin-1-yl-3-pyridyl)piperazin-1-yl]methyl]morpholin-4-yl]quinoline-8-carbonitrile]
10 | 50 nM | C[C@@H]1CN(c2ccc(C#N)c3ncccc23)C[C@H](CN2CCN(c3ccc(N4CCNCC4)cn3)CC2)O1 [Example 8, 5-[(2R,6S)-2-methyl-6-[[4-(5-piperazin-1-yl-2-pyridyl)piperazin-1-yl]methyl]morpholin-4-yl]quinoline-8-carbonitrile]
11 | 19 nM | C[C@@H]1CN(c2ccc(C#N)c3ncccc23)C[C@H](CN2CCN(c3cc(N4CCNCC4)ccn3)CC2)O1 [Example 9, 5-[(2R,6S)-2-methyl-6-[[4-(4-piperazin-1-yl-2-pyridyl)piperazin-1-yl]methyl]morpholin-4-yl]quinoline-8-carbonitrile]
12 | 33 nM | C[C@@H]1CN(c2ccc(C#N)c3ncccc23)C[C@H](CN2CCN(c3cccc(N4CCNCC4)n3)CC2)O1 [Example 10, 5-[(2R,6S)-2-methyl-6-[[4-(6-piperazin-1-yl-2-pyridyl)piperazin-1-yl]methyl]morpholin-4-yl]quinoline-8-carbonitrile]
13 | 23 nM | C[C@@H]1CN(c2ccc(C#N)c3ncccc23)C[C@H](CN2CCC(C#N)(c3ccc(N4CCNCC4)cc3)CC2)O1 [Example 11, 5-[(2S,6R)-2-[[4-cyano-4-(4-piperazin-1-ylphenyl)-1-piperidyl]methyl]-6-methyl-morpholin-4-yl]quinoline-8-carbonitrile]
14 | 12 nM | C[C@@H]1CN(c2ccc(C#N)c3ncccc23)C[C@H](CN2CCN(c3cnc(N4CCNCC4)nc3)CC2)O1 [Example 12, 5-[(2R,6S)-2-methyl-6-[[4-(2-piperazin-1-ylpyrimidin-5-yl)piperazin-1-yl]methyl]morpholin-4-yl]quinoline-8-carbonitrile]
15 | 18 nM | C[C@@H]1CN(c2ccc(C#N)c3ncccc23)C[C@H](CN2CCN(c3ccc(N4CCNCC4)nc3)CC2)O1 [Example 13, 5-[(2R,6S)-2-methyl-6-[[4-(6-piperazin-1-yl-3-pyridyl)piperazin-1-yl]methyl]morpholin-4-yl]quinoline-8-carbonitrile]
16 | 6 nM | C[C@@H]1CN(c2ccc(C#N)c3ncccc23)C[C@H](CN2CCN(c3nccc(N4CCNCC4)n3)CC2)O1 [Example 14, 5-[(2R,6S)-2-methyl-6-[[4-(4-piperazin-1-ylpyrimidin-2-yl)piperazin-1-yl]methyl]morpholin-4-yl]quinoline-8-carbonitrile]
17 | 7 nM | C[C@@H]1CN(c2ccc(C#N)c3ncccc23)C[C@H](CN2CCN(c3ccnc(N4CCNCC4)n3)CC2)O1 [Example 15, 5-[(2R,6S)-2-methyl-6-[[4-(2-piperazin-1-ylpyrimidin-4-yl)piperazin-1-yl]methyl]morpholin-4-yl]quinoline-8-carbonitrile]
18 | 31 nM | C[C@@H]1CN(c2ccc(C#N)c3ncccc23)C[C@H](CN2CCN(c3ncc(N4CCNCC4)cn3)CC2)O1 [Example 17, 5-[(2R,6S)-2-methyl-6-[[4-(5-piperazin-1-ylpyrimidin-2-yl)piperazin-1-yl]methyl]morpholin-4-yl]quinoline-8-carbonitrile]
19 | 11 nM | C[C@@H]1CN(c2ccc(C#N)c3ncccc23)C[C@H](CN2CCN(c3cc(N4CCNCC4)ncn3)CC2)O1 [Example 18, 5-[(2R,6S)-2-methyl-6-[[4-(6-piperazin-1-ylpyrimidin-4-yl)piperazin-1-yl]methyl]morpholin-4-yl]quinoline-8-carbonitrile]
20 | 25 nM | C[C@@H]1CN(c2ccc(C#N)c3ncccc23)C[C@H](CN2CCN(c3ccc([C@@H]4CNCCO4)cc3)CC2)O1 [Example 19, 5-[(2R,6S)-2-methyl-6-[[4-[4-[(2R)-morpholin-2-yl]phenyl]piperazin-1-yl]methyl]morpholin-4-yl]quinoline-8-carbonitrile]
21 | 20 nM | C[C@@H]1CN(c2ccc(C#N)c3ncccc23)C[C@H](CN2CCN(c3ccc([C@H]4CNCCO4)cc3)CC2)O1 [Example 20, 5-[(2R,6S)-2-methyl-6-[[4-[4-[(2S)-morpholin-2-yl]phenyl]piperazin-1-yl]methyl]morpholin-4-yl]quinoline-8-carbonitrile]
22 | 16 nM | C[C@@H]1CN(c2ccc(C#N)c3ncccc23)C[C@H](CN2CCN(c3cc(N4CCN(C)CC4)ncn3)CC2)O1 [Example 21, 5-[(2R,6S)-2-methyl-6-[[4-[6-(4-methylpiperazin-1-yl)pyrimidin-4-yl]piperazin-1-yl]methyl]morpholin-4-yl]quinoline-8-carbonitrile]
23 | 10 nM | C[C@@H]1CN(c2ccc(C#N)c3ncccc23)C[C@H](CN2CCN(c3ccnc(N4CCN(C)CC4)n3)CC2)O1 [Example 22, 5-((2R,6S)-2-methyl-6-((4-(2-(4-methylpiperazin-1-yl)pyrimidin-4-yl)piperazin-1-yl)methyl)morpholino)quinoline-8-carbonitrile]
